Earlier results on 2 compounds are cited in patent publication US20060198926A1, “ALPHA-PYRONE COMPOSITION FOR CONTROLLING CRAVING AND AS A SUBSTITUTE FOR ALCOHOL” (priority 1999, published 2006).

For this data set, the system named is dopaminergic neurons of the nucleus accumbens. To be noted: administered in vivo by microdialysis into the nucleus accumbens (Baum 1998).

`COc1cc(/C=C/c2ccccc2)oc(=O)c1` [desmethoxyyangonin]: the “levels of dopamine in the nucleus accumbens” value was “increase in dopamine”.

`COc1ccc(/C=C/c2cc(OC)cc(=O)o2)cc1` [yangonin]: the “levels of dopamine in the nucleus accumbens” value is “decreases dopamine to undetectable levels”.
